The values that follow come from patent publication US10329309B2, “3-(3H-imidazo[4,5-B]pyridin-2-yl)-1H-pyrazolo[4,3-B]pyridines and therapeutic uses thereof” (Samumed, LLC, priority 2015, dated 2019).

Assay [1] concerns primary human mesenchymal stem cells (hMSCs). In words: Induction of chondrogenesis in primary human mesenchymal stem cells (nodule imaging, Rhodamine B/Nile Red). In kind it is cell-based. The note with it: hMSC chondrogenesis; for Emax: TGF-β3 as positive control, read-out: Max. Activity as % TGF-β3 activity; for EC50: concentration required to induce 50% levels of chondrogenesis vs TGF-β3, read-out: Conc (nM) of 50% TGF-β3 activity. The method in brief: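 hMSCs (passage 3–6) in incomplete chondrogenic induction medium were dosed at 2700–10 nM (96-well, 6-point) or 5000–2.2 nM (384-well, 8-point), 0.03% DMSO final, for 6 days at 37° C. Fixed nodules stained with Rhodamine B/Nile Red were imaged; nodule area normalized to DMSO wells gave EC50, maximum activity and dose at maximum, with TGF-β3 (10 ng/mL) as positive control.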

Assay [2] relates to primary human fibroblasts derived from IPF patients (LL29 cells), α-smooth muscle actin (αSMA). Briefly: Inhibition of the fibrotic process: TGF-β1-treated primary human fibroblasts from IPF patients, αSMA staining. In kind it is cell-based. The note with it: Fibroblast, 96 h, 4 days; for EC50: LL29 fibroblasts from IPF patients, TGF-β1 20 ng/mL, inhibition of fibrotic process; for inhibition at 10 µM: LL29 fibroblasts, TGF-β1 treated, read-out: percent inhibition at 10 μM (given for EC50 of >10 μM). The method in brief: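 LL29 IPF-patient lung fibroblasts in 1% FBS F12 were given compounds (11-point, 10 μM to […], 0.1% DMSO) plus TGF-β1 20 ng/mL for 4 days at 37 °C. αSMA-positive fraction of live (SYTOX-negative) cells was imaged and normalized to TGF-β1/DMSO wells. EC50 by non-linear regression, or % inhibition at 10 μM if >10 μM.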

Structures are written as SMILES.

With `CC(C)CC(=O)Nc1cncc(-c2ccc3[nH]nc(-c4nc5c(-c6cccc(F)c6)ccnc5[nH]4)c3n2)c1` [Compound 2, N-(5-(3-(7-(3-fluorophenyl)-3H-imidazo[4,5-b]pyridin-2-yl)-1H-pyrazolo [4,3-b]pyridin-5-yl)pyridin-3-yl)-3-methylbutanamide], in assay [1], the Emax turned out to be 56% and the EC50 was 21 nM. Besides, the EC50 in assay [2] was determined as 292 nM.
In the same order, the values of `CN(C)c1cncc(-c2ccc3[nH]nc(-c4nc5c(-c6cccc(F)c6)ccnc5[nH]4)c3n2)c1` [Compound 7, 5-(3-(7-(3-fluorophenyl)-3H-imidazo[4,5-b]pyridin-2-yl)-1H-pyrazolo[4,3-b]pyridin-5-yl)-N,N-dimethylpyridin-3-amine] are 84%, 10 nM and 2170 nM.
For `CN(C)Cc1cncc(-c2ccc3[nH]nc(-c4nc5c(-c6cccc(F)c6)ccnc5[nH]4)c3n2)c1` [Compound 13, 1-(5-(3-(7-(3-fluorophenyl)-3H-imidazo[4,5-b]pyridin-2-yl)-1H-pyrazolo [4,3-b]pyridin-5-yl)pyridin-3-yl)-N,N-dimethylmethanamine], in assay [1], the Emax is 29%. This compound also registered an EC50 in assay [2] of 1440 nM.
Taken in the same sequence, the figures for `Fc1ccc(-c2ccnc3[nH]c(-c4n[nH]c5ccc(-c6cncc(CN7CCCC7)c6)nc45)nc23)cc1` [Compound 42, 3-(7-(4-fluorophenyl)-3H-imidazo[4,5-b]pyridin-2-yl)-5-(5-(pyrrolidin-1-ylmethyl)pyridin-3-yl)-1H-pyrazolo[4,3-b]pyridine] were 17% and 1850 nM.
On to `O=C(Nc1cncc(-c2ccc3[nH]nc(-c4nc5c(-c6ccc(F)cc6)ccnc5[nH]4)c3n2)c1)C1CCC1` [Compound 49, N-(5-(3-(7-(4-fluorophenyl)-3H-imidazo[4,5-b]pyridin-2-yl)-1H-pyrazolo [4,3-b]pyridin-5-yl)pyridin-3-yl)cyclobutanecarboxamide], for which, in assay [1], the Emax is 69% and the EC50 was 30 nM. The compound further gave an EC50 in assay [2] of 1370 nM.
For the compound `CC(C)(C)CC(=O)Nc1cncc(-c2ccc3[nH]nc(-c4nc5c(-c6ccccc6F)ccnc5[nH]4)c3n2)c1` [Compound 72, N-(5-(3-(7-(2-fluorophenyl)-3H-imidazo[4,5-b]pyridin-2-yl)-1H-pyrazolo [4,3-b]pyridin-5-yl)pyridin-3-yl)-3,3-dimethylbutanamide], in assay [2], the EC50 is > 10000 nM and the inhibition at 10 µM turned out to be 0%.
Taken in the same sequence, the figures for `Fc1ccccc1-c1ccnc2[nH]c(-c3n[nH]c4ccc(-c5ccccn5)nc34)nc12` [Compound 84, 3-(7-(2-Fluorophenyl)-3H-imidazo[4,5-b]pyridin-2-yl)-5-(pyridin-2-yl)-1H-pyrazolo[4,3-b]pyridine] were > 10000 nM and 29.4%.
Regarding `c1cncc(-c2ccc3[nH]nc(-c4nc5c(-c6cccnc6)ccnc5[nH]4)c3n2)c1` [Compound 88, 5-(pyridin-3-yl)-3-(7-(pyridin-3-yl)-3H-imidazo[4,5-b]pyridin-2-yl)-1H-pyrazolo [4,3-b]pyridine], in assay [1], the Emax was 95% and the EC50 was found to be 300 nM. The EC50 in assay [2] turned out to be 747 nM.
Taken in the same sequence, the figures for `CC(C)Nc1cncc(-c2ccc3[nH]nc(-c4nc5c(-c6cccnc6)ccnc5[nH]4)c3n2)c1` [Compound 96, N-isopropyl-5-(3-(7-(pyridin-3-yl)-3H-imidazo[4,5-b]pyridin-2-yl)-1H-pyrazolo[4,3-b]pyridin-5-yl)pyridin-3-amine] were 113%, 10 nM and 1760 nM.
Take `O=C(Nc1cncc(-c2ccc3[nH]nc(-c4nc5c(N6CCCCC6)ccnc5[nH]4)c3n2)c1)C1CC1` [Compound 188, N-(5-(3-(7-(Piperidin-1-yl)-3H-imidazo[4,5-b]pyridin-2-yl)-1H-pyrazolo [4,3-b]pyridin-5-yl)pyridin-3-yl)cyclopropanecarboxamide]: in assay [2], the EC50 was > 10000 nM and the inhibition at 10 µM was 0%.
Consider `Cc1ccncc1-c1ccc2[nH]nc(-c3nc4c(-c5ccsc5)ccnc4[nH]3)c2n1` [Compound 285, 5-(4-methylpyridin-3-yl)-3-(7-(thiophen-3-yl)-3H-imidazo[4,5-b]pyridin-2-yl)-1H-pyrazolo[4,3-b]pyridine], for which the Emax in assay [1] amounted to 33%. The compound further came in with an EC50 in assay [2] of 2050 nM.
Take `O=C(Nc1cncc(-c2ccc3[nH]nc(-c4nc5c(-c6ccsc6)ccnc5[nH]4)c3n2)c1)c1ccccc1` [Compound 291, N-(5-(3-(7-(Thiophen-3-yl)-3H-imidazo[4,5-b]pyridin-2-yl)-1H-pyrazolo [4,3-b]pyridin-5-yl)pyridin-3-yl)benzamide]: in assay [2], the EC50 is > 10000 nM and the inhibition at 10 µM was found to be 42.5%.
As for `CCCC(=O)Nc1cncc(-c2ccc3[nH]nc(-c4nc5c(-c6ccsc6)ccnc5[nH]4)c3n2)c1` [Compound 297, N-(5-(3-(7-(thiophen-3-yl)-3H-imidazo[4,5-b]pyridin-2-yl)-1H-pyrazolo[4,3-b]pyridin-5-yl)pyridin-3-yl)butyramide], the Emax in assay [1] came to 40%. In assay [2], this compound showed an EC50 of 410 nM.
Regarding `FC1(F)CCN(Cc2cncc(-c3ccc4[nH]nc(-c5nc6c(-c7ccsc7)ccnc6[nH]5)c4n3)c2)C1` [Compound 306, 5-(5-((3,3-difluoropyrrolidin-1-yl)methyl)pyridin-3-yl)-3-(7-(thiophen-3-yl)-3H-imidazo[4,5-b]pyridin-2-yl)-1H-pyrazolo[4,3-b]pyridine], the Emax in assay [1] was found to be 77%. The values for the EC50 in assay [1] and in assay [2] were 30 nM and 165 nM, respectively.
As for `CCNCc1cncc(-c2ccc3[nH]nc(-c4nc5c(-c6ccoc6)ccnc5[nH]4)c3n2)c1` [Compound 314, N-((5-(3-(7-(furan-3-yl)-3H-imidazo[4,5-b]pyridin-2-yl)-1H-pyrazolo[4,3-b]pyridin-5-yl)pyridin-3-yl)methyl)ethanamine], the Emax in assay [1] turned out to be 32%. In assay [2], the EC50 is > 10000 nM and the inhibition at 10 µM is 0%.
As for `CC(C)Nc1cncc(-c2ccc3[nH]nc(-c4nc5c(-c6ccoc6)ccnc5[nH]4)c3n2)c1` [Compound 320, 5-(3-(7-(furan-3-yl)-3H-imidazo[4,5-b]pyridin-2-yl)-1H-pyrazolo[4,3-b]pyridin-5-yl)-N-isopropylpyridin-3-amine], in assay [1], the Emax came out at 64% and the EC50 came out at 100 nM. This compound returned an EC50 in assay [2] of 277 nM.
Regarding `CCCCC(=O)Nc1cncc(-c2ccc3[nH]nc(-c4nc5c(-c6ccoc6)ccnc5[nH]4)c3n2)c1` [Compound 327, N-(5-(3-(7-(furan-3-yl)-3H-imidazo[4,5-b]pyridin-2-yl)-1H-pyrazolo[4,3-b]pyridin-5-yl)pyridin-3-yl)pentanamide], in assay [1], the Emax was determined as 83% and the EC50 worked out at 10 nM. In assay [2], this compound gave an EC50 of 277 nM.
As for `O=C(Nc1cncc(-c2ccc3[nH]nc(-c4nc5c(-c6cccs6)ccnc5[nH]4)c3n2)c1)C1CC1` [Compound 356, N-(5-(3-(7-(Thiophen-2-yl)-3H-imidazo[4,5-b]pyridin-2-yl)-1H-pyrazolo [4,3-b]pyridin-5-yl)pyridin-3-yl)cyclopropanecarboxamide], the EC50 in assay [2] is 4860 nM.
On the same count and under the same terms, with `CS(=O)(=O)NCc1cc(F)cc(-c2ccnc3[nH]c(-c4n[nH]c5ccc(-c6cncc(CNCc7ccccc7)c6)nc45)nc23)c1` [Compound 500, N-(3-(2-(5-(5-((Benzylamino)methyl)pyridin-3-yl)-1H-pyrazolo[4,3-b]pyridin-3-yl)-3H-imidazo[4,5-b]pyridin-7-yl)-5-fluorobenzyl)methanesulfonamide] the figure was 9260 nM.
For the compound `Fc1cccc(-c2ccnc3[nH]c(-c4n[nH]c5ccc(-c6cncc(OCCN7CCCC7)c6)nc45)nc23)c1` [Compound 514, 3-(7-(3-Fluorophenyl)-3H-imidazo[4,5-b]pyridin-2-yl)-5-(5-(2-(pyrrolidin-1-yl)ethoxy)pyridin-3-yl)-1H-pyrazolo[4,3-b]pyridine], in assay [2], the EC50 is > 10000 nM and the inhibition at 10 µM came to 0%.
The compound `COc1cccc(-c2ccnc3[nH]c(-c4n[nH]c5ccc(-c6cncc(NC(=O)CC(C)(C)C)c6)nc45)nc23)c1` [Compound 1006, N-(5-(3-(7-(3-methoxyphenyl)-3H-imidazo[4,5-b]pyridin-2-yl)-1H-pyrazolo[4,3-b]pyridin-5-yl)pyridin-3-yl)-3,3-dimethylbutanamide] returned an EC50 in assay [2] of 2490 nM.
Turning to `COc1cccc(-c2ccnc3[nH]c(-c4n[nH]c5ccc(-c6cncc(NC(=O)C7CCCCC7)c6)nc45)nc23)c1` [Compound 1012, N-(5-(3-(7-(3-Methoxyphenyl)-3H-imidazo[4,5-b]pyridin-2-yl)-1H-pyrazolo [4,3-b]pyridin-5-yl)pyridin-3-yl)cyclohexanecarboxamide], in assay [2], the EC50 was determined as 1170 nM.
Still for that read-out and setting: with `NC1CN(c2cncc(-c3ccc4[nH]nc(-c5nc6c(-c7ccc(Cl)s7)ccnc6[nH]5)c4n3)n2)C1` [Compound 1068, 1-(6-(3-(7-(5-Chlorothiophen-2-yl)-3H-imidazo[4,5-b]pyridin-2-yl)-1H-pyrazolo[4,3-b]pyridin-5-yl)pyrazin-2-yl)azetidin-3-amine] the figure was 938 nM.

In general, inhibition refers to the percentage by which the read-out fell short of the control.
